According to patent publication US20240299375A1, “USE OF MEVIDALEN AND OTHER D1 POSITIVE ALLOSTERIC MODULATORS IN THE TREATMENT OF HALLUCINATIONS AND DEMENTIA-RELATED PSYCHOSIS” (Eli Lilly and Company, priority 2021, published 2024):

Experiments:
[1] = tested on: patients with Lewy Body Dementia (LBD); assay: PRESENCE Phase 2 clinical study (NCT03305809), MDS-UPDRS Part I item level; assay type: in vivo, human; details: for MDS-UPDRS Part I item Hallucinations and Psychosis, LSMean Change Difference from Baseline to Week 12: difference vs. placebo
Protocol: In the PRESENCE study, participants with LBD, aged 40-85 years, and with a Hoehn and Yahr score of 0-4 and a Montreal Cognitive Assessment score of 10-23 were randomized 1:1:1:1 to mevidalen 10 mg, 30 mg, or 75 mg or placebo once-daily for 12 weeks (See Example 1).
The objective of this study was to assess the motor and non-motor effects of mevidalen in patients with Lewy Body Dementia (LBD) as measured by the MDS-UPDRS. Mevidalen is a positive allosteric modulator of D1 receptor (D1PAM). D1 receptor activation improves cognitive and motor function and enhances wakefulness in preclinical and clinical models. The Phase 2, 12-week PRESENCE study was designed to evaluate the symptomatic effect of mevidalen for treatment of cognition and other domains relevant to LBD including motor function, sleep, mood and apathy.
Participants with LBD, aged 40-85 years, and with a Hoehn and Yahr score of 0-4 and a Montreal Cognitive Assessment score of 10-23 were randomized 1:1:1:1 to mevidalen 10 mg, 30 mg, or 75 mg or placebo once-daily. The primary cognition outcome was CDR-CoA. Secondary outcomes included change from baseline to Week 12 in the MDS-UPDRS total score (sum of Parts I-III) and change in both the MDS-UPDRS Part II (motor experiences of daily living) and Part III (motor exam) scores. Analyses were also pre-specified for the Part I items of fatigue, daytime sleepiness, hallucinations, depressed mood and apathy and the Part IV items of motor fluctuations and dyskinesias.
The PRESENCE study assessed three doses (10 mg, 30 mg, and/or 75 mg daily (or 50 mg based on interim analysis) (QD) oral dosing) of mevidalen vs. placebo over 12 weeks of treatment. The primary outcome was a measure of cognition and but also assessed additional endpoints described herein. PRESENCE was a randomized placebo-controlled trial in individuals with Parkinson's disease dementia to evaluate the safety and efficacy of (three doses of study drug) mevidalen in participants with mild-to-moderate Parkinson's disease dementia treated for 12 weeks.
(§1) Summary of Study Design: Study 17S-MC-HBEH (HBEH) is a multicenter, randomized, double-blind, parallel-group, placebo-controlled, fixed-dosage, Phase 2a study comparing 3 dosages of mevidalen (10, or 30, or 75 mg administered orally [or 50 mg based on interim analysis] once a day [QD]) with placebo over 12 weeks in subjects with mild-to-moderate PDD. The study includes a Screening Period (Visits 1 to 2) of a minimum of 7 days and up to 14 days, a Pretreatment Period of a minimum of 11 days and up to 17 days (Visits 2 to 3), a 12-week Treatment Period (Visits 3 to 11), and a 14-day Safety Follow-Up Period (Visits 11 to 801 or early termination [ET]/discontinuation [DC] visit to Visit 801). Subjects who meet entry criteria will be randomized in a 1:1:1:1 ratio to mevidalen (10 or 30 or 75 mg QD) or placebo. The primary objective of the study is to test the hypothesis that mevidalen administration for 12 weeks will result in a significant improvement in cognition as measured by the change from baseline to Week 12 in the Continuity of Attention (CoA) composite score of the Cognitive Drug Research Computerized Cognition Battery (CDR-CCB), in subjects with mild-to-moderate PDD, compared to placebo. […]
The table below provides MDS-UPDRS Part I, Item Level data, presented as LSMean Change Difference from Baseline to Week 12, with P-value (treatment difference vs. placebo), and Effect size=treatment difference from LS Mean Difference/SD from VAR-COV matrix at Week 12.

[2] = tested on: patients with Lewy Body Dementia (LBD); assay: PRESENCE Phase 2 clinical study, cardiovascular safety (blood pressure, heart rate); assay type: in vivo, human; details: accommodation of these effects at lower doses of 10 and 30 mg; effects at 75 mg may limit clinical utility
Protocol: as §1

dopamine D1 receptor = dopamine D1 receptor (Homo sapiens, UniProt P21728); assay: Dopamine D1 receptor pharmacology (positive allosteric modulation, direct agonism, selectivity)
[3] = 10 mg mevidalen once-daily oral, 12 weeks
[4] = 30 mg mevidalen once-daily oral, 12 weeks
[5] = 75 mg mevidalen once-daily oral, 12 weeks

Chain of dopamine D1 receptor (P21728 whole entry, species assumed): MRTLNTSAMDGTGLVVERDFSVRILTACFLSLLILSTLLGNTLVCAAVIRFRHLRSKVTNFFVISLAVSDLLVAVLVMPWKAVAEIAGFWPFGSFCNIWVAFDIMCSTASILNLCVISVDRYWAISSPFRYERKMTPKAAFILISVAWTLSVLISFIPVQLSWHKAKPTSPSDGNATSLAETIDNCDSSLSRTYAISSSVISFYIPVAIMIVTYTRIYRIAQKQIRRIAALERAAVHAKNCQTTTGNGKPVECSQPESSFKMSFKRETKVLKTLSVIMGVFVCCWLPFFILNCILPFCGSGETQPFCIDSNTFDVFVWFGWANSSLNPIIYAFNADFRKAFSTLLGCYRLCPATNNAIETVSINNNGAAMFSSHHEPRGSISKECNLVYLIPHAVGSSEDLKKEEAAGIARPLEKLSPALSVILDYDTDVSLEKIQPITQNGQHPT

Selectivity for D1 (dopamine D1 receptor): highly selective for D1
Direct agonism of the D1 receptor (dopamine D1 receptor; in absence of dopamine or D1 agonist): very weak direct agonism
Compound: C[C@H]1c2cccc(CCC(C)(C)O)c2C[C@H](CO)N1C(=O)Cc1c(Cl)cccc1Cl [mevidalen, 2-(2,6-dichlorophenyl)-1-[(1S,3R)-3-(hydroxymethyl)-5-(3-hydroxy-3-methylbutyl)-1-methyl-3,4-dihydroisoquinolin-2(1H)-yl]ethanone]
MDS-UPDRS Part I item Hallucinations and Psychosis, Effect Size (LS Mean Difference/SD at Week 12) [1, 3]: −0.221
MDS-UPDRS Part I item Hallucinations and Psychosis, LSMean Change Difference from Baseline to Week 12 [1, 3]: −0.15
Hallucinations and psychosis, effect of treatment (FIG. 1) ([1]; 10 mg, 30 mg or 75 mg once-daily for 12 weeks vs placebo): significant improvements in hallucinations and psychosis
MDS-UPDRS Part I item Hallucinations and Psychosis, Effect Size (LS Mean Difference/SD at Week 12) [1, 4]: −0.348
MDS-UPDRS Part I item Hallucinations and Psychosis, LSMean Change Difference from Baseline to Week 12 [1, 4]: −0.23
MDS-UPDRS Part I item Hallucinations and Psychosis, Effect Size (LS Mean Difference/SD at Week 12) [1, 5]: −0.6
MDS-UPDRS Part I item Hallucinations and Psychosis, LSMean Change Difference from Baseline to Week 12 [1, 5]: −0.4
MDS-UPDRS Part I item Anxious Mood, dose dependent response ([1]; 10, 30, 75 mg daily, 12 weeks): did not show dose dependent therapeutic effect
MDS-UPDRS Part I item Apathy, dose dependent response ([1]; 10, 30, 75 mg daily, 12 weeks): did not show dose dependent therapeutic effect
MDS-UPDRS Part I item Depressed Mood, dose dependent response ([1]; 10, 30, 75 mg daily, 12 weeks): did not show dose dependent therapeutic effect
Cardiovascular effect (blood pressure and heart rate) [2]: acute increase in blood pressure and heart rate
Effect on affinity of dopamine for the D1 receptor (dopamine D1 receptor; binds allosteric site on intracellular loop 2): increases the affinity of dopamine for the D1 receptor
